Assay results: paper PMC10343752, “Anti-α-Glucosidase, SAR Analysis, and Mechanism Investigation of Indolo[1,2-b]isoquinoline Derivatives” (Molecules, 2023)

Assays:
[1] = target: T1, α-glucosidase from Saccharomyces cerevisiae (Saccharomyces cerevisiae, UniProt P53341); experiment: biochemical; assay type: biochemical; conditions: for IC50: α-glucosidase 0.1 U/mL, PNPG 0.25 mM, pH 6.8, 37 °C, read-out: α-Glucosidase inhibitory activity IC50
T1 construct: purchased Sigma-Aldrich
Method: (§1) α-Glucosidase from Saccharomyces cerevisiae (EC 3.2.1.20) was purchased from Sigma-Aldrich. p-Nitrophenyl-α-D-[…] (PNPG) was obtained from Abcam. Other reagents were commercially available.
After the addition of PNPG (0.25 mM), the change in absorbance was measured at 405 nm. […] All experiments were performed four times.

[2] = target: T2, α-glucosidase (Saccharomyces cerevisiae, UniProt P53341); experiment: α-glucosidase inhibition kinetics (enzyme kinetics and Lineweaver-Burk substrate kinetics); assay type: biochemical; conditions: for inhibition type (substrate kinetics): Lineweaver-Burk plots; for Ki / Kis / Vmax: inhibition kinetics constant; for reversibility of inhibition (enzyme kinetics): plots of remaining enzyme activity versus enzyme concentration
T2 construct: purchased Sigma-Aldrich
T2 sequence (P53341 whole entry): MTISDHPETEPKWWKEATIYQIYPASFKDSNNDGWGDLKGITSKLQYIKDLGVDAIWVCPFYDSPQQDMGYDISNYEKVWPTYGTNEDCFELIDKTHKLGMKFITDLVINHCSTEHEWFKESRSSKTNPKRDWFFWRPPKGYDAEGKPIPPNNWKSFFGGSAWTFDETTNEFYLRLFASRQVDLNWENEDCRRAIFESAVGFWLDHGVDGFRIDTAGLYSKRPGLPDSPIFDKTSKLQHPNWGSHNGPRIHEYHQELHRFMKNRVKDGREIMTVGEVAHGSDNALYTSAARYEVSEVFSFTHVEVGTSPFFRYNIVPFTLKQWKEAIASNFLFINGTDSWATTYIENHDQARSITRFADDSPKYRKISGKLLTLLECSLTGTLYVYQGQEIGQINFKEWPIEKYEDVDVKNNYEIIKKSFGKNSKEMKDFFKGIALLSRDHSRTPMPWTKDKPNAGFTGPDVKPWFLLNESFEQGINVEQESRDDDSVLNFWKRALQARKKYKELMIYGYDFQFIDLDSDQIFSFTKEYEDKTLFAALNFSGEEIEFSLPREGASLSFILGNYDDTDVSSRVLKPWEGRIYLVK
Excerpt: Compounds 9, 11, 13, 18, and 19 with different α-glucosidase inhibitory activity were selected as representative compounds to reveal the inhibition mechanism of indolo[1,2-b]isoquinoline derivatives (1–21) on α-glucosidase by the implementation of an inhibition kinetics study. […] For substrate kinetics (Figure 5b,d,f,h,j), the Lineweaver-Burk plots of remaining enzyme activity versus […] treated with compounds 9, 11, 13, 18, and 19 intersected at one point in the second quadrant, respectively. The inhibition kinetics study was an effective method by which to understand the inhibition mechanism of the inhibitor against the target protein. In a substrate kinetics study, different inhibition mechanisms of inhibitors manifested as different intersection positions of Lineweaver-Burk plots. […] Moreover, compounds 9, 11, 13, 18, and 19 bind with both free enzyme and enzyme-substrate complexes to inhibit α-glucosidase. The inhibition kinetics constants of compounds 9, 11, 13, 18, and 19 were obtained and are listed in Table 2, including Ki, Kis, Km, and Vmax values, which might be helpful to understand the inhibition mechanism.
as §1
The kinetics of enzyme inhibition for compounds 9, 11, 13, 18, and 19 were obtained by plotting the enzymatic reaction rate versus enzyme concentration with or without compounds 9, 11, 13, 18, and 19, and the kinetics of substrate inhibition were measured using Lineweaver Burk plots of the enzymatic reaction rate versus substrate concentration with or without compounds 9, 11, 13, 18, and 19 [37, 38, 39, 40].

[3] = test system: hepatocytes LO2 cells; experiment: In vitro cytotoxicity, MTT method; assay type: cell-based; conditions: 24 h, up to a concentration of 32 μM
Method: The in vitro cytotoxicity of compounds 9, 11, 13, 18, and 19 against hepatocytes LO2 cells was detected using the MTT method.
The in vitro cytotoxicity of compound 11 against hepatocytes LO2 cells was assayed using the MTT method. LO2 cells were cultured in DMEM containing 10% FBS, 100 IU/mL penicillin, and 100 IU/mL streptomycin at 37 °C under 5% CO2. An amount of 100 μL of LO2 cells was seeded into a 96-well plate (5000 per well) for 24 h, and was then treated with compounds 9, 11, 13, 18, and 19 for 24 h, respectively. Then, MTT solution was added into each well and incubated for 4 h. An amount of […] of DMSO was used to dissolve the obtained crystallization. Then, this absorbance was determined at 490 nm. Each sample was performed in triplicate.

[4] = target: T2, α-glucosidase; experiment: 3D fluorescence spectra of α-glucosidase with compounds; assay type: binding; conditions: α-glucosidase 5 μM
Excerpt: The 3D fluorescence spectra of α-glucosidase with compounds 9, 11, 13, 18, and 19 was investigated to analyze the effect of compounds on the structure of α-glucosidase, respectively. Two important characteristic peaks appeared in the 3D fluorescence spectra of α-glucosidase (Figure 6a,c,e,g,i), including Peak 1 ([…]), corresponding to the main chain structure of the polypeptide, and Peak 2 ([…]), corresponding to tyrosine and tryptophan residues. […] (Figure 6b,d,f,h,j). Previously, 3D fluorescence spectra have been used to determine protein conformation changes.
as §1
Compounds 9, 11, 13, 18, and 19 were added to α-glucosidase (5 μM) in 100 μL of PBS and incubated for 5 min, then the 3D fluorescence spectra of the mixture were recorded [32]^. The excitation and emission wavelengths were 200–500 nm and the slit width was 2.5 nm. All data were imported into Matlab for processing.

[5] = target: T2, α-glucosidase; experiment: CD spectra, secondary structure contents of α-glucosidase; assay type: binding; conditions: for effect on CD band intensity of α-glucosidase: 190~280 nm
Excerpt: CD spectra were also monitored to study the effect of compounds 9, 11, 13, 18, and 19 on the conformational changes of α-glucosidase. As shown in Figure 7a–e, α-glucosidase presented two negative CD bands in the region of 190~280 nm, which was owed to the electronic transitions of n→π* of α-helical bonds. […] While treatment of compounds 9, 13, 18, and 19 led to an increase of α-helix and a reduction of β-sheet, β-turn, and random coils, respectively (Table 3). CD spectra have been an important method by which to study protein structural changes and secondary structural content. Previous research has shown that the interaction of an inhibitor with α-glucosidase caused the partial folding and loosening of the α-glucosidase structure.
as §1
Compounds 9, 11, 13, 18, and 19 with different concentrations were added into α-glucosidase solution (31 μM) and incubated for 5 min, respectively, then the CD spectra of the mixture were recorded. CDNN was used to analyze the ratio of protein secondary conformations.

[6] = molar ratio [α-Glu]:[Comp.] 1:1
[7] = molar ratio [α-Glu]:[Comp.] 1:2
[8] = molar ratio [α-Glu]:[Comp.] 1:3

T1 sequence (P53341 whole entry): as above

SMILES: O=C1c2ccccc2-n2c1c(-c1ccccc1)c1ccccc1c2=O [Compound 1]
- IC50 [1]: 23.46 ± 0.23 µM

SMILES: Cc1ccc(-c2c3n(c(=O)c4ccccc24)-c2ccccc2C3=O)cc1 [Compound 2]
- IC50 [1]: 17.4 ± 0.25 µM

SMILES: Cc1cccc(-c2c3n(c(=O)c4ccccc24)-c2ccccc2C3=O)c1 [Compound 3]
- IC50 [1]: 9.25 ± 0.14 µM

SMILES: Cc1ccccc1-c1c2n(c(=O)c3ccccc13)-c1ccccc1C2=O [Compound 4]
- IC50 [1]: 22.3 ± 0.63 µM

SMILES: CCc1ccc(-c2c3n(c(=O)c4ccccc24)-c2ccccc2C3=O)cc1 [Compound 5]
- IC50 [1]: 16.1 ± 0.46 µM

SMILES: CC(C)(C)c1ccc(-c2c3n(c(=O)c4ccccc24)-c2ccccc2C3=O)cc1 [Compound 6]
- IC50 [1]: 5.76 ± 0.26 µM

SMILES: O=C1c2ccccc2-n2c1c(-c1ccc(Cl)cc1)c1ccccc1c2=O [Compound 7]
- IC50 [1]: 14.7 ± 0.37 µM

SMILES: COc1ccc(-c2c3n(c(=O)c4ccccc24)-c2ccccc2C3=O)cc1 [Compound 8]
- IC50 [1]: 15.1 ± 0.44 µM

SMILES: CN(C)c1ccc(-c2c3n(c(=O)c4ccccc24)-c2ccccc2C3=O)cc1 [Compound 9]
- IC50 [1]: 40.9 ± 0.69 µM
- inhibition type (substrate kinetics) [2]: mixed-type inhibition
- Ki [2]: 30.5 µM
- Kis [2]: 96.19 µM
- Vmax [2]: 0.12 µM/min/mg
- reversibility of inhibition (enzyme kinetics) [2]: reversible
- effect on cell viability [3]: no significant effect on cell viability
- effect on fluorescence intensity of Peak 1 and Peak 2 of α-glucosidase [4]: decrease the fluorescence intensity
- effect on CD band intensity of α-glucosidase [5]: decrease in CD band intensity
- Rndm Coil [5, 6]: 35.10%
- α-Helix [5, 6]: 10.80%
- β-Sheet [5, 6]: 35.60%
- β-Turn [5, 6]: 19.30%
- Rndm Coil [5, 7]: 34.60%
- α-Helix [5, 7]: 13.00%
- β-Sheet [5, 7]: 31.90%
- β-Turn [5, 7]: 19.30%
- Rndm Coil [5, 8]: 33.40%
- α-Helix [5, 8]: 13.10%
- β-Sheet [5, 8]: 31.70%
- β-Turn [5, 8]: 19.10%

SMILES: O=C1c2ccccc2-n2c1c(-c1ccccc1Cl)c1ccccc1c2=O [Compound 10]
- IC50 [1]: 12.2 ± 0.46 µM

SMILES: O=C1c2ccccc2-n2c1c(-c1ccc3ccccc3c1)c1ccccc1c2=O [Compound 11]
- anti-α-glucosidase activity, times stronger than acarbose [1]: ~ 186 times
- IC50 [1]: 3.44 ± 0.36 µM
- inhibition type (substrate kinetics) [2]: mixed-type inhibition
- Ki [2]: 0.46 µM
- Kis [2]: 14.57 µM
- Vmax [2]: 0.06 µM/min/mg
- reversibility of inhibition (enzyme kinetics) [2]: reversible
- effect on cell viability [3]: no significant effect on cell viability
- effect on fluorescence intensity of Peak 1 and Peak 2 of α-glucosidase [4]: decrease the fluorescence intensity
- effect on CD band intensity of α-glucosidase [5]: concentration-dependent increase in the CD band intensity
- Rndm Coil [5, 6]: 35.60%
- α-Helix [5, 6]: 8.40%
- β-Sheet [5, 6]: 34.30%
- β-Turn [5, 6]: 20.00%
- Rndm Coil [5, 7]: 35.60%
- α-Helix [5, 7]: 8.20%
- β-Sheet [5, 7]: 34.70%
- β-Turn [5, 7]: 20.00%
- Rndm Coil [5, 8]: 35.80%
- α-Helix [5, 8]: 7.80%
- β-Sheet [5, 8]: 35.20%
- β-Turn [5, 8]: 20.10%

SMILES: COC(=O)c1ccc(-c2c3n(c(=O)c4ccccc24)-c2ccccc2C3=O)cc1 [Compound 12]
- IC50 [1]: 32.8 ± 0.72 µM

SMILES: O=C1c2cc(Cl)ccc2-n2c1c(-c1ccccc1)c1ccccc1c2=O [Compound 13]
- IC50 [1]: 6.35 ± 0.25 µM
- inhibition type (substrate kinetics) [2]: mixed-type inhibition
- Ki [2]: 3.62 µM
- Kis [2]: 11.65 µM
- Vmax [2]: 0.08 µM/min/mg
- reversibility of inhibition (enzyme kinetics) [2]: reversible
- effect on cell viability [3]: no significant effect on cell viability
- effect on fluorescence intensity of Peak 1 and Peak 2 of α-glucosidase [4]: decrease the fluorescence intensity
- effect on CD band intensity of α-glucosidase [5]: decrease in CD band intensity
- Rndm Coil [5, 6]: 35.60%
- α-Helix [5, 6]: 8.80%
- β-Sheet [5, 6]: 40.60%
- β-Turn [5, 6]: 19.30%
- Rndm Coil [5, 7]: 35.40%
- α-Helix [5, 7]: 9.10%
- β-Sheet [5, 7]: 39.60%
- β-Turn [5, 7]: 19.40%
- Rndm Coil [5, 8]: 35.10%
- α-Helix [5, 8]: 11.20%
- β-Sheet [5, 8]: 34.60%
- β-Turn [5, 8]: 19.60%

SMILES: Cc1ccc2c(c1)-n1c(c(-c3ccccc3)c3ccccc3c1=O)C2=O [Compound 14]
- IC50 [1]: 17 ± 0.37 µM

SMILES: O=C1c2ccc(Cl)cc2-n2c1c(-c1ccccc1)c1ccccc1c2=O [Compound 15]
- IC50 [1]: 9.25 ± 0.41 µM

SMILES: O=C1c2cc(F)ccc2-n2c1c(-c1ccccc1)c1ccccc1c2=O [Compound 16]
- IC50 [1]: 10.1 ± 0.36 µM

SMILES: Cc1ccc2c(=O)n3c(c(-c4ccccc4)c2c1)C(=O)c1ccccc1-3 [Compound 17]
- IC50 [1]: 7.95 ± 0.43 µM

SMILES: O=C1c2ccccc2-n2c1c(-c1ccccc1)c1ccc(F)cc1c2=O [Compound 18]
- IC50 [1]: 7.97 ± 0.31 µM
- inhibition type (substrate kinetics) [2]: mixed-type inhibition
- Ki [2]: 4.62 µM
- Kis [2]: 12.34 µM
- Vmax [2]: 0.08 µM/min/mg
- reversibility of inhibition (enzyme kinetics) [2]: reversible
- effect on cell viability [3]: no significant effect on cell viability
- effect on fluorescence intensity of Peak 1 and Peak 2 of α-glucosidase [4]: decrease the fluorescence intensity
- effect on CD band intensity of α-glucosidase [5]: decrease in CD band intensity
- Rndm Coil [5, 6]: 35.00%
- α-Helix [5, 6]: 11.10%
- β-Sheet [5, 6]: 35.30%
- β-Turn [5, 6]: 19.40%
- Rndm Coil [5, 7]: 35.00%
- α-Helix [5, 7]: 11.20%
- β-Sheet [5, 7]: 35.00%
- β-Turn [5, 7]: 19.30%
- Rndm Coil [5, 8]: 34.70%
- α-Helix [5, 8]: 12.80%
- β-Sheet [5, 8]: 35.00%
- β-Turn [5, 8]: 19.30%

SMILES: Cc1ccc2c(c1)-n1c(c(-c3ccccc3)c3cc(C)ccc3c1=O)C2=O [Compound 19]
- IC50 [1]: 41.2 ± 0.76 µM
- inhibition type (substrate kinetics) [2]: mixed-type inhibition
- Ki [2]: 8.38 µM
- Kis [2]: 42.30 µM
- Vmax [2]: 0.05 µM/min/mg
- reversibility of inhibition (enzyme kinetics) [2]: reversible
- effect on cell viability [3]: no significant effect on cell viability
- effect on fluorescence intensity of Peak 1 and Peak 2 of α-glucosidase [4]: decrease the fluorescence intensity
- effect on CD band intensity of α-glucosidase [5]: decrease in CD band intensity
- Rndm Coil [5, 6]: 34.60%
- α-Helix [5, 6]: 12.90%
- β-Sheet [5, 6]: 31.80%
- β-Turn [5, 6]: 19.40%
- Rndm Coil [5, 7]: 34.70%
- α-Helix [5, 7]: 11.50%
- β-Sheet [5, 7]: 34.20%
- β-Turn [5, 7]: 19.30%
- Rndm Coil [5, 8]: 34.90%
- α-Helix [5, 8]: 12.80%
- β-Sheet [5, 8]: 34.40%
- β-Turn [5, 8]: 19.30%

SMILES: Cc1ccc2c(=O)n3c(c(-c4ccccc4)c2c1)C(=O)c1cc(F)ccc1-3 [Compound 20]
- IC50 [1]: 11.9 ± 0.36 µM
